Results taken from article PMC4657098, “A Review of the Updated Pharmacophore for the Alpha 5 GABA(A) Benzodiazepine Receptor Model” (International Journal of Medicinal Chemistry, 2015).

Key:
α5β3γ2 GABAA receptor = target: T1, α5β3γ2 GABAA receptor (Homo sapiens, UniProt P18507+P31644); assay: Oocyte electrophysiology, α5β3γ2; type: cell-based
T1 construct: expressed in transfected cells; host or cells: Xenopus oocytes

DAT = target: T2, DAT (Homo sapiens, UniProt Q01959); assay: PDSP receptor binding, DAT; conditions: PDSP primary screen at 10 µM
T2 construct: purchased NIMH PDSP (Psychoactive Drug Screening Program, Roth lab, Case Western Reserve)

NET = target: T3, NET (Homo sapiens, UniProt P23975); assay: PDSP receptor binding, NET; conditions: PDSP primary screen at 10 µM
T3 construct: purchased NIMH PDSP (Psychoactive Drug Screening Program, Roth lab, Case Western Reserve)

H2 = target: T4, H2 (Homo sapiens, UniProt P25021); assay: PDSP receptor binding, H2; conditions: PDSP primary screen at 10 µM
T4 construct: purchased NIMH PDSP (Psychoactive Drug Screening Program, Roth lab, Case Western Reserve)

5ht1e = target: T5, 5ht1e (Homo sapiens, UniProt P28566); assay: PDSP receptor binding, 5ht1e; conditions: PDSP primary screen at 10 µM
T5 construct: purchased NIMH PDSP (Psychoactive Drug Screening Program, Roth lab, Case Western Reserve)

α5β3γ2 GABAA/BzR = α5β3γ2 GABAA/BzR (Homo sapiens, UniProt P18507+P31644); assay: Competition binding to HEK cell membranes, α5β3γ2; parameters: expressed in transfected cells; conditions: Figure 5; read-out: Ki α5
α2β3γ2 GABAA/BzR = α2β3γ2 GABAA/BzR (Homo sapiens, UniProt P18507+P47869); assay: Competition binding to HEK cell membranes, α2β3γ2; parameters: expressed in transfected cells; conditions: Figure 5; read-out: Ki α2
5ht7 = target: T6, 5ht7 (Homo sapiens, UniProt P34969); assay: PDSP receptor binding, 5ht7; conditions: PDSP primary screen at 10 µM
T6 construct: purchased NIMH PDSP (Psychoactive Drug Screening Program, Roth lab, Case Western Reserve)

NMDA = assay: PDSP receptor binding, NMDA; conditions: PDSP primary screen at 10 µM
H3 = target: T7, H3 (Homo sapiens, UniProt Q9Y5N1); assay: PDSP receptor binding, H3; conditions: PDSP primary screen at 10 µM
T7 construct: purchased NIMH PDSP (Psychoactive Drug Screening Program, Roth lab, Case Western Reserve)

MOR = target: T8, MOR (Homo sapiens, UniProt P35372); assay: PDSP receptor binding, MOR; conditions: PDSP primary screen at 10 µM
T8 construct: purchased NIMH PDSP (Psychoactive Drug Screening Program, Roth lab, Case Western Reserve)

5ht5a = target: T9, 5ht5a (Homo sapiens, UniProt P47898); assay: PDSP receptor binding, 5ht5a; conditions: PDSP primary screen at 10 µM
T9 construct: purchased NIMH PDSP (Psychoactive Drug Screening Program, Roth lab, Case Western Reserve)

D2 = target: T10, D2 (Homo sapiens, UniProt P14416); assay: PDSP receptor binding, D2; conditions: PDSP primary screen at 10 µM
T10 construct: purchased NIMH PDSP (Psychoactive Drug Screening Program, Roth lab, Case Western Reserve)

MDR = assay: PDSP receptor binding, MDR; conditions: PDSP primary screen at 10 µM
M1 = target: T11, M1 (Homo sapiens, UniProt P11229); assay: PDSP receptor binding, M1; conditions: PDSP primary screen at 10 µM
T11 construct: purchased NIMH PDSP (Psychoactive Drug Screening Program, Roth lab, Case Western Reserve)

M4 = target: T12, M4 (Homo sapiens, UniProt P08173); assay: PDSP receptor binding, M4; conditions: PDSP primary screen at 10 µM
T12 construct: purchased NIMH PDSP (Psychoactive Drug Screening Program, Roth lab, Case Western Reserve)

DOR = target: T13, DOR (Homo sapiens, UniProt P41143); assay: PDSP receptor binding, DOR; conditions: PDSP primary screen at 10 µM
T13 construct: purchased NIMH PDSP (Psychoactive Drug Screening Program, Roth lab, Case Western Reserve)

α6β3γ2 GABAA/BzR = α6β3γ2 GABAA/BzR (Homo sapiens, UniProt P18507+Q16445); assay: Competition binding to HEK cell membranes, α6β3γ2; parameters: expressed in transfected cells; conditions: Figure 5; read-out: Ki α6
H1 = target: T14, H1 (Homo sapiens, UniProt P35367); assay: PDSP receptor binding, H1; conditions: PDSP primary screen at 10 µM
T14 construct: purchased NIMH PDSP (Psychoactive Drug Screening Program, Roth lab, Case Western Reserve)

α1β3γ2 GABAA/BzR = α1β3γ2 GABAA/BzR (Homo sapiens, UniProt P14867+P18507); assay: Competition binding to HEK cell membranes, α1β3γ2; parameters: expressed in transfected cells; conditions: Figure 5; read-out: Ki α1
D5 = target: T15, D5 (Homo sapiens, UniProt P21918); assay: PDSP receptor binding, D5; conditions: PDSP primary screen at 10 µM
T15 construct: purchased NIMH PDSP (Psychoactive Drug Screening Program, Roth lab, Case Western Reserve)

D3 = target: T16, D3 (Homo sapiens, UniProt P35462); assay: PDSP receptor binding, D3; conditions: PDSP primary screen at 10 µM
T16 construct: purchased NIMH PDSP (Psychoactive Drug Screening Program, Roth lab, Case Western Reserve)

M3 = target: T17, M3 (Homo sapiens, UniProt P20309); assay: PDSP receptor binding, M3; conditions: PDSP primary screen at 10 µM
T17 construct: purchased NIMH PDSP (Psychoactive Drug Screening Program, Roth lab, Case Western Reserve)

5ht1a = target: T18, 5ht1a (Homo sapiens, UniProt P08908); assay: PDSP receptor binding, 5ht1a; conditions: PDSP primary screen at 10 µM
T18 construct: purchased NIMH PDSP (Psychoactive Drug Screening Program, Roth lab, Case Western Reserve)

σ2 = assay: PDSP receptor binding, σ2; conditions: PDSP primary screen at 10 µM
Beta1 = target: T19, Beta1 (Homo sapiens, UniProt P08588); assay: PDSP receptor binding, Beta1; conditions: PDSP primary screen at 10 µM
T19 construct: purchased NIMH PDSP (Psychoactive Drug Screening Program, Roth lab, Case Western Reserve)

D1 = target: T20, D1 (Homo sapiens, UniProt P21728); assay: PDSP receptor binding, D1; conditions: PDSP primary screen at 10 µM
T20 construct: purchased NIMH PDSP (Psychoactive Drug Screening Program, Roth lab, Case Western Reserve)

M5 = target: T21, M5 (Homo sapiens, UniProt P08912); assay: PDSP receptor binding, M5; conditions: PDSP primary screen at 10 µM
T21 construct: purchased NIMH PDSP (Psychoactive Drug Screening Program, Roth lab, Case Western Reserve)

## CCc1ccc2c(c1)C(=O)N(C)Cc1c(C(=O)OCCCOC(=O)c3ncn4c3CN(C)C(=O)c3cc(CC)ccc3-4)ncn1-2 [XLi-356 (10), 1,3-Bis(8-ethyl-5,6-dihydro-5-methyl-6-oxo-4H-imidazo[1,5a][1,4]benzodiazepine-3-carboxy) propyl diester]
α5β3γ2 GABAA receptor
  efficacy type at the α5 subtype: weak agonist-antagonist
DAT
  DAT binding: ∗ (“∗” indicates “primary missed” (<50% inhibition at 10 µM))
NET
  NET binding: ∗ (“∗” indicates “primary missed” (<50% inhibition at 10 µM))
H2
  H2 binding: ∗ (“∗” indicates “primary missed” (<50% inhibition at 10 µM))
5ht1e
  5ht1e binding: ∗ (“∗” indicates “primary missed” (<50% inhibition at 10 µM))
α5β3γ2 GABAA/BzR
  Ki: 0.101 µM
α2β3γ2 GABAA/BzR
  Ki: 4.2 µM
5ht7
  5ht7 binding: ∗ (“∗” indicates “primary missed” (<50% inhibition at 10 µM))
NMDA
  NMDA binding: ∗ (“∗” indicates “primary missed” (<50% inhibition at 10 µM))
H3
  H3 binding: ∗ (“∗” indicates “primary missed” (<50% inhibition at 10 µM))
MOR
  MOR binding: ∗ (“∗” indicates “primary missed” (<50% inhibition at 10 µM))
5ht5a
  5ht5a binding: ∗ (“∗” indicates “primary missed” (<50% inhibition at 10 µM))
D2
  D2 binding: ∗ (“∗” indicates “primary missed” (<50% inhibition at 10 µM))
MDR
  MDR binding: ∗ (“∗” indicates “primary missed” (<50% inhibition at 10 µM))
M1
  M1 binding: ∗ (“∗” indicates “primary missed” (<50% inhibition at 10 µM))
M4
  M4 binding: ∗ (“∗” indicates “primary missed” (<50% inhibition at 10 µM))
DOR
  DOR binding: ∗ (“∗” indicates “primary missed” (<50% inhibition at 10 µM))
α6β3γ2 GABAA/BzR
  Ki: 5 µM
H1
  H1 binding: ∗ (“∗” indicates “primary missed” (<50% inhibition at 10 µM))
α1β3γ2 GABAA/BzR
  Ki: 1.85 µM
D5
  D5 binding: ∗ (“∗” indicates “primary missed” (<50% inhibition at 10 µM))
D3
  D3 binding: ∗ (“∗” indicates “primary missed” (<50% inhibition at 10 µM))
M3
  M3 binding: ∗ (“∗” indicates “primary missed” (<50% inhibition at 10 µM))
5ht1a
  5ht1a binding: ∗ (“∗” indicates “primary missed” (<50% inhibition at 10 µM))
σ2
  σ2 binding: ∗ (“∗” indicates “primary missed” (<50% inhibition at 10 µM))
Beta1
  Beta1 binding: ∗ (“∗” indicates “primary missed” (<50% inhibition at 10 µM))
D1
  D1 binding: ∗ (“∗” indicates “primary missed” (<50% inhibition at 10 µM))
M5
  M5 binding: ∗ (“∗” indicates “primary missed” (<50% inhibition at 10 µM))
